Consider one molecule from patent US10695311B2, “Solution for ophthalmology” (priority 2016, dated 2020).

The test system of one data set is lens capsule. Nature of the data set: Surgical studies within the scope of extracapsular procedures. As to conditions: L-lysine concentrations of up to 5%. Format: in vivo. From the text: (§1) The surgical result is therefore permanent; further procedures for treatment of possible capsule fibrosis are rarely or never necessary. The solution according to the invention can be used with every phacoemulsification, with or without lens implantation, to clean the posterior capsule. In this regard, the solution according to the invention can be produced from commercially available L-lysine. In particular, the solution can be present as a flushing solution.
When performing the extracapsular operation, it has proven to be practical to apply 1 to 5 ml of the L-lysine according to the invention to the posterior capsule after removal of the cloudy lens core and the subcapsular cortex layer (Cortex lentis), using an anterior-chamber cannula. After a sufficient period of action, the solution is suctioned away and rinsed off. In this regard, the period of action is primarily dependent on the concentration of the solution. For a solution with a concentration of 2 wt.-%, it lies between 30 s and 5 min, preferably at approximately 1 min. The period of action should not amount to more than 5 min, preferably not more than 3 min.

The subject of data set [1] is zonula fibers and posterior capsule of donor eyes. Description: Experiments on donor eyes. The settings on record: the corneas of which were used for cornea transfers, L-lysine in the concentration indicated above (0.5-3.5 wt.-%).
Source text: as §1

The test system of data set [2] is lens capsule and hemidesmosomes. Description: Studies by the inventor with lysine solutions (lens capsule / hemidesmosomes). As to conditions: lysine solutions having a lower concentration.

Turning to `NCCCC[C@H](N)C(=O)O` [L-lysine], in the data set on lens capsule, the “integrity of lens capsule during and after the procedure” value is “the lens capsule remained intact during and after the procedure”; the “prevention of capsule fibrosis after the procedures” value is on record as “it was possible to prevent capsule fibrosis after the procedures”. Also, the “attack on zonula fibers and posterior capsule” value in data set [1] is reported as “neither the zonula fibers nor the posterior capsule are attacked”. Besides, in data set [2], the “damage to the lens capsule” value is reported as “damage to the lens capsule does not occur” and the “digestion of the hemidesmosomes” value is given as “digestion of the hemidesmosomes still takes place to a sufficient extent”.
